For assay [1], the target named is T1, FLT3 D835V (Homo sapiens, UniProt P36888, D835V).
T1 construct: purchased DiscoverX (KINOMEscan); host or cells: E. coli BL21-derived host (T7 phage) or HEK-293
T1 sequence (P36888 27-993 D835V): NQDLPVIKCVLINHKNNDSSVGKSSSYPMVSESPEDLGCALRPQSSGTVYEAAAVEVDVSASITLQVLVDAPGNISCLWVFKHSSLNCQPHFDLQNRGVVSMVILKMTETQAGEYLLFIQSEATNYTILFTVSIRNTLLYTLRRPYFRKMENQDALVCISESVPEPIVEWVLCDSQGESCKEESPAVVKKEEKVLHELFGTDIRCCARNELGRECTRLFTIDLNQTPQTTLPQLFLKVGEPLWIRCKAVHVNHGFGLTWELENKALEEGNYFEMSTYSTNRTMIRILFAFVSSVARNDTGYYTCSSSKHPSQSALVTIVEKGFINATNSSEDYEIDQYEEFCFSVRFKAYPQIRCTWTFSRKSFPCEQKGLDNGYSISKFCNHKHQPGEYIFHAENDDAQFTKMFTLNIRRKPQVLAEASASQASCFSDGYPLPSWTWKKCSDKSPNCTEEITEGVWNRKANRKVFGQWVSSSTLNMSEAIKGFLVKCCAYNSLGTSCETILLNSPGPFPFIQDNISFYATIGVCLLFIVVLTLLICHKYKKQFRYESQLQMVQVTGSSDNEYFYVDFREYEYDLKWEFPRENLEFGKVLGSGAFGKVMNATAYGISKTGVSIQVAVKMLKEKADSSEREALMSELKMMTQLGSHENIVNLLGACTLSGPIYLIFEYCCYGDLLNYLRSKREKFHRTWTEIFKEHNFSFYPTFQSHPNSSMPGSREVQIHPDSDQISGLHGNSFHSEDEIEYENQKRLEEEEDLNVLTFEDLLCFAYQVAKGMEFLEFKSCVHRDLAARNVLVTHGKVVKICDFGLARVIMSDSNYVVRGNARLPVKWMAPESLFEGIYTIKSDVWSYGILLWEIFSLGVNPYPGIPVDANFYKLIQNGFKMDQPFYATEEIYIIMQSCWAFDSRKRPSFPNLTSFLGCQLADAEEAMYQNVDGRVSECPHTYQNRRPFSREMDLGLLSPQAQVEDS
The experiment in a line: DiscoverX KINOMEscan competition binding assay, FLT3 D835V. As to conditions: 11-point 3-fold dilution. The text has this:
(§1) […]. […] As a result, the data report thermodynamic interaction affinities (Kd values), rather than IC50 values that are dependent on ATP concentrations. The assay uses a DNA-tagged version of the protein kinase, and an immobilized ligand bound to a solid support. Compounds that directly or indirectly prevent kinase binding to the immobilized ligand reduce the amount of kinase captured on the solid support, which is detected using an ultra-sensitive qPCR method. Affinity constants reported from the assay have been reported to be independent of the immobilized ligand used that is coupled to the solid support (See supplemental information in Fabian, M. A. et. al., (2005) Nat. Biotechnol. 23, 329-336; Wodicka, L. M. et. al., (2010) Chem. Biol. 17, 1241-1249.)
(§2) Kinase-tagged T7 phage strains were prepared in an E. coli host derived from the BL21 strain. E. coli were grown to log-phase and infected with T7 phage and incubated with shaking at 32° C. until lysis. The lysates were centrifuged and filtered to remove cell debris. The remaining kinases were produced in HEK-293 cells and subsequently tagged with DNA for qPCR detection. Streptavidin-coated magnetic beads were treated with biotinylated small molecule ligands for 30 minutes at room temperature to generate affinity resins for kinase assays. The liganded beads were blocked with excess biotin and washed with blocking buffer (SeaBlock (Pierce), 1% BSA, 0.05% Tween 20, 1 mM DTT) to remove unbound ligand and to reduce non-specific binding. […] Test compounds were prepared as 111× stocks in 100% DMSO. Kds were determined using an 11-point 3-fold compound dilution series with three DMSO control points. All compounds for Kd measurements are distributed by acoustic transfer (non-contact dispensing) in 100% DMSO. The compounds were then diluted directly into the assays such that the final concentration of DMSO was 0.9%. All reactions were performed in polypropylene 384-well plates. Each was a final volume of 0.02 mL. […] The kinase concentration in the eluates was measured by qPCR.
(§3) Binding constants (Kds) were calculated with a standard dose-response curve using the Hill equation. The Hill Slope was set to −1. Curves were fitted using a non-linear least square fit with the Levenberg-Marquardt algorithm.

Assay [2] addresses T2, FLT3 ITD, D835V (Homo sapiens, UniProt P36888, D835V, form not given).
T2 construct: fused on or other part: DNA tag for qPCR detection (kinase-tagged T7 phage, or made in HEK-293 cells and then tagged with DNA)
T2 sequence (P36888 1-993 D835V): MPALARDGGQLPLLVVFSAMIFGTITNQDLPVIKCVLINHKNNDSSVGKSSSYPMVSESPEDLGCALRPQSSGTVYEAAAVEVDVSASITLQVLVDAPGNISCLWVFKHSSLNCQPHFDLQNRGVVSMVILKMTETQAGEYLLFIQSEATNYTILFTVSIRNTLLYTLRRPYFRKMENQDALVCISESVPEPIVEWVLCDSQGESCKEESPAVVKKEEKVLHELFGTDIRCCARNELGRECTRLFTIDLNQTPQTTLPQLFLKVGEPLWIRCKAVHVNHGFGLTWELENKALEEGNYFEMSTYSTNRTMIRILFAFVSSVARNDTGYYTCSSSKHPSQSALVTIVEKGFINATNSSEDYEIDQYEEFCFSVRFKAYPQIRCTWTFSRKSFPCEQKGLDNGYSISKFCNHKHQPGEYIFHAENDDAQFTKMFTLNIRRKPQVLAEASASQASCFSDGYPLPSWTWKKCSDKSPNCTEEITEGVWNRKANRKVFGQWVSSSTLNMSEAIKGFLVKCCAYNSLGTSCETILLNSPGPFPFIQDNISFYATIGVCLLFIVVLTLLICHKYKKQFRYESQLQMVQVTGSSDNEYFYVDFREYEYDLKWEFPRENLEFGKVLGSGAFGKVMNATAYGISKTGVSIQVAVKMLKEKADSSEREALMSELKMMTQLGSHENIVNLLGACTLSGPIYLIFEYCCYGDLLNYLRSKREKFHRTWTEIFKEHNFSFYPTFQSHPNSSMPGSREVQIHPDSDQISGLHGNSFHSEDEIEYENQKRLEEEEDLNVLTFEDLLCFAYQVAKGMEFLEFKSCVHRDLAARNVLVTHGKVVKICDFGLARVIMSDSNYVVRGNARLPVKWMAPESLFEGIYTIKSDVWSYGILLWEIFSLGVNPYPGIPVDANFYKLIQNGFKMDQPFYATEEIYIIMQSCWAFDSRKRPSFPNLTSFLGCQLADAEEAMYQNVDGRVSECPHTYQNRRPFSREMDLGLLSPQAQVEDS
The experiment in a line: DiscoverX KINOMEscan competition binding assay, FLT3 ITD, D835V. The settings on record: 11-point 3-fold dilution.
From the text: as §1, §2, §3

A value given as a limit tells only on which side of the number the result lay.

Consider `COc1cc2ncc(-c3nc(N[C@H]4CNCC[C@@H]4F)ncc3F)n2nc1C1CC1` [Compound 1a, 4-(6-cyclopropyl-7-methoxyimidazo[1,2-b]pyridazin-3-yl)-5-fluoro-N-((3S,4S)-4-fluoropiperidin-3-yl)pyrimidin-2-amine], for which the Kd in assay [1] and in assay [2] was less than 0.17 nM each time.
As for `FC(F)COc1cc2ncc(-c3ccnc(N[C@H]4CNCC[C@@H]4F)n3)n2nc1C1CC1` [Compound 4a, 4-(6-cyclopropyl-7-(2,2-difluoroethoxy)imidazo[1,2-b]pyridazin-3-yl)-N-((3 S,4S)-4-fluoropiperidin-3-yl)pyrimidin-2-amine], the Kd in assay [1] and in assay [2] was less than 0.17 nM throughout.
As for `COc1cc2ncc(-c3nc(N[C@H]4CNCC[C@@H]4F)ncc3F)n2nc1C(C)(C)O` [Compound 45a, 2-(3-(5-fluoro-2-(((3S,4S)-4-fluoropiperidin-3-yl)amino)pyrimidin-4-yl)-7-methoxyimidazo[1,2-b]pyridazin-6-yl)propan-2-ol], the values for the Kd in assay [1] and in assay [2] were 0.87 nM and 0.23 nM, respectively.
For `CC(C)(O)c1ccc2ncc(-c3nc(N[C@H]4CNCC[C@@H]4F)ncc3F)n2c1` [Compound 46a, 2-(3-(5-fluoro-2-(((3S,4S)-4-fluoropiperidin-3-yl)amino)pyrimidin-4-yl)imidazo[1,2-a]pyridin-6-yl)propan-2-ol], in that order: 0.53 nM and less than 0.17 nM.
For `COc1cc2ncc(-c3nc(N[C@H]4CNCC[C@@H]4F)ncc3F)n2nc1C1COC1` [Compound 92a, 5-fluoro-N-((3S,4S)-4-fluoropiperidin-3-yl)-4-(7-methoxy-6-(oxetan-3-yl)imidazo[1,2-b]pyridazin-3-yl)pyrimidin-2-amine], in that order: less than 0.17 nM and less than 0.17 nM.
For `CC(C)(O)c1cn2c(-c3nc(N[C@H]4CNCC[C@@H]4F)ncc3F)cnc2cn1` [Compound 100a, 2-(3-(5-fluoro-2-(((3S,4S)-4-fluoropiperidin-3-yl)amino)pyrimidin-4-yl)imidazo[1,2-a]pyrazin-6-yl)propan-2-ol], in that order: 2.1 nM and 0.19 nM.
Turning to `COc1cc2ncc(-c3nc(N[C@H]4CNCC[C@@H]4F)ncc3F)n2nc1N1CCCS1(=O)=O` [Compound 112a, 2-(3-(5-fluoro-2-(((3S,4S)-4-fluoropiperidin-3-yl)amino)pyrimidin-4-yl)-7-methoxyimidazo[1,2-b]pyridazin-6-yl)isothiazolidine 1,1-dioxide], the Kd in assay [1] and in assay [2] was less than 0.17 nM throughout.
